Source: patent US10350210B2, “EGFR and ALK dual inhibitor” (PRECEDO PHARMACEUTICALS CO., LTD, priority 2015, dated 2019)

Legend:
CHL = assay: Cell growth (Cell Titer-Glo viability), CHL; format: cell-based, Chinese hamster; settings: Cricetulus griseus; CHL Chinese hamster lung cell, 72 hrs; read-out: GI50
A549 = assay: Growth of cancer cells (Cell Titer-Glo viability), A549; format: cell-based; settings: Homo sapiens; A549 (wild-type EGFR), 72 hrs
BaF3 = assay: Cell growth (Cell Titer-Glo viability), BaF3; format: cell-based; settings: BaF3 mouse primary B cell, 72 hrs
BaF3-TEL-ALK = assay: Cell growth (Cell Titer-Glo viability), BaF3-TEL-ALK; format: cell-based; settings: Mus musculus; BaF3-TEL-ALK (stably expressing ALK kinase), 72 hrs
Method in brief: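 Proliferation assay: IL-3-independent BaF3 lines stably expressing TEL-fused human kinase (retroviral MSCV-Puro), plus EGFR-mutant NSCLC lines (HCC827 del19, NCI-H3255 L858R). Read-out: CellTiter-Glo luminescence of viable cells.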

[1] = tested on: non-small cell lung cancer cell H3122 subcutaneous tumors; assay: Mouse tumor model of non-small cell lung cancer cell H3122; format: in vivo; settings: for tumor inhibition rate: Bal b/c mice
Experimental: Similarly, 72 Bal b/c female mice, 4-6 weeks old, were purchased from Shanghai SLAC Laboratory Animal Co., Ltd., and maintained in an SPF laboratory. Drinking water and bedding were both sterilized by autoclaving. All operations involving the mice were performed under aseptic conditions. At day 0, 5×10^6 non-small cell lung cancer cells H3122 (purchased from ATCC) were injected subcutaneously into the left flank of all mice. At day 15, all mice were divided into eight groups (9 mice per group), and the first group of mice were orally administered with methyl cellulose (HKI) solvent, the second group of mice were orally administered with Compound 1 at a dose of 5 mg/kg mouse weight, the third group of mice were orally administered with Compound 1 at a dose of 10 mg/kg mouse weight, the fourth group of mice were orally administered with Compound 1 at a dose of 20 mg/kg mouse weight, the fifth group of mice were orally administered with methyl cellulose (HKI) solvent, the sixth group of mice were orally administered with Compound 10 at a dose of 10 mg/kg mouse weight, the seventh group of mice were orally administered with Compound 10 at a dose of 20 mg/kg mouse weight, and the eighth group of mice were orally administered with Compound 10 at a dose of 40 mg/kg mouse weight daily. Starting from the administration, the length/width of the subcutaneous tumor was measured daily with a vernier caliper, and the weight of the mice was recorded daily to observe the effect of Compounds 1 and 10 on the body weight of the mice. For the first to fourth groups, the mice were sacrificed at day 36 and the subcutaneous tumors were collected. The tumors were weighed, and then the tumor tissues were used to prepare protein lysates for use. The growth trend of the subcutaneous tumor within 16-36 days was plotted, wherein the tumor volume was calculated as length×width×width/2 mm^3. For the fifth to eighth groups, the mice were sacrificed at day 43 and the subcutaneous tumors were collected. The tumors were weighed, and then the tumor tissues were used to prepare protein lysates for use. The growth trend of the subcutaneous tumor within 16-43 days was plotted, wherein the tumor volume was calculated as length×width×width/2 mm^3.

Structure (SMILES) | GI50 (CHL) [nM] | GI50 (A549) [nM] | GI50 (BaF3) [nM] | GI50 (BaF3-TEL-ALK) [nM] | tumor inhibition rate ([1]; oral daily 10 mg/kg, on the second day of administration) [%] | tumor inhibition rate ([1]; oral daily 20 mg/kg) [%] | body weight of the mice ([1]; oral daily 10 mg/kg) | tumor inhibition rate ([1]; oral daily 40 mg/kg) [%] | body weight of the mice ([1]; oral daily 20 mg/kg) | body weight of the mice ([1]; oral daily 40 mg/kg)
C=CC(=O)Nc1cc(Nc2ncc(Cl)c(Nc3ccccc3S(=O)(=O)C(C)C)n2)c(OC)cc1N1CCN(CC)CC1 [Compound 1, N-(5-(5-chloro-4-(2-(isopropylsulfonyl)phenylamino)pyrimidin-2-ylamino)-2-(4-ethylpiperazin-1-yl)-4-methoxyphenyl)acrylamide] | 1800 | 410 | 1400 | < 0.3 | 61.5 | 77.7 | did not decrease | – | – | –
C=CC(=O)Nc1cc(Nc2ncc(Cl)c(Nc3ccccc3S(=O)(=O)C(C)C)n2)c(OC)cc1N1CCCN(C)CC1 [Compound 10, N-(5-(5-chloro-4-(2-(isopropylsulfonyl)phenylamino)pyrimidin-2-ylamino)-4-methoxy-2-(4-methyl-1,4-homopiperazin-1-yl)phenyl)acrylamide] | 3500 | 510 | 1200 | 3 | – | 68.3 | – | 78.4 | did not decrease | did not decrease
